In the CheMixHub viscosity set:
± gives the uncertainty stated by the source.

Assay: xn = mol fraction of the nth substance listed

COC(C)=O + CCCCCC
Conditions | viscosity [mPa·s]
298.15 K, 101 kPa, x1 = 0.0412 | 0.29 ± 0.004
298.15 K, 101 kPa, x1 = 0.1497 | 0.289 ± 0.004
298.15 K, 101 kPa, x1 = 0.2521 | 0.291 ± 0.004
298.15 K, 101 kPa, x1 = 0.3502 | 0.295 ± 0.004
298.15 K, 101 kPa, x1 = 0.4406 | 0.3 ± 0.004
298.15 K, 101 kPa, x1 = 0.4839 | 0.303 ± 0.004
298.15 K, 101 kPa, x1 = 0.5505 | 0.309 ± 0.004
298.15 K, 101 kPa, x1 = 0.6499 | 0.32 ± 0.004
298.15 K, 101 kPa, x1 = 0.7508 | 0.334 ± 0.004
298.15 K, 101 kPa, x1 = 0.8488 | 0.351 ± 0.004
298.15 K, 101 kPa, x1 = 0.941 | 0.37 ± 0.004
298.15 K, 101.3 kPa, x1 = 0.1056 | 0.2969 ± 0.0032
298.15 K, 101.3 kPa, x1 = 0.2943 | 0.2941 ± 0.0032
298.15 K, 101.3 kPa, x1 = 0.4514 | 0.2996 ± 0.0032
298.15 K, 101.3 kPa, x1 = 0.5616 | 0.3071 ± 0.0033
298.15 K, 101.3 kPa, x1 = 0.6895 | 0.3189 ± 0.0034
298.15 K, 101.3 kPa, x1 = 0.7175 | 0.3223 ± 0.0034
298.15 K, 101.3 kPa, x1 = 0.8224 | 0.342 ± 0.0035
298.15 K, 101.3 kPa, x1 = 0.9171 | 0.365 ± 0.0037
303.15 K, 101.3 kPa, x1 = 0.1069 | 0.276 ± 0.0023
303.15 K, 101.3 kPa, x1 = 0.204 | 0.2755 ± 0.0023
303.15 K, 101.3 kPa, x1 = 0.306 | 0.2772 ± 0.0023
303.15 K, 101.3 kPa, x1 = 0.406 | 0.2809 ± 0.0023
303.15 K, 101.3 kPa, x1 = 0.4998 | 0.2857 ± 0.0023
303.15 K, 101.3 kPa, x1 = 0.602 | 0.2937 ± 0.0024
303.15 K, 101.3 kPa, x1 = 0.6984 | 0.3048 ± 0.0024
303.15 K, 101.3 kPa, x1 = 0.8014 | 0.3165 ± 0.0025
303.15 K, 101.3 kPa, x1 = 0.8998 | 0.3298 ± 0.0026
308.15 K, 101 kPa, x1 = 0.0412 | 0.272 ± 0.004
308.15 K, 101 kPa, x1 = 0.1497 | 0.271 ± 0.004
308.15 K, 101 kPa, x1 = 0.2521 | 0.273 ± 0.004
308.15 K, 101 kPa, x1 = 0.3502 | 0.276 ± 0.004
308.15 K, 101 kPa, x1 = 0.4406 | 0.28 ± 0.004
308.15 K, 101 kPa, x1 = 0.4839 | 0.283 ± 0.004
308.15 K, 101 kPa, x1 = 0.5505 | 0.288 ± 0.004
308.15 K, 101 kPa, x1 = 0.6499 | 0.297 ± 0.004
308.15 K, 101 kPa, x1 = 0.7508 | 0.309 ± 0.004
308.15 K, 101 kPa, x1 = 0.8488 | 0.323 ± 0.004
308.15 K, 101 kPa, x1 = 0.941 | 0.339 ± 0.004

C1CCCCC1 + CCCCCCC
Conditions | viscosity [mPa·s]
298.15 K, 101 kPa, x1 = 0.3947 | 0.588
298.15 K, 101 kPa, x1 = 0.4171 | 0.598
298.15 K, 101 kPa, x1 = 0.4283 | 0.604
298.15 K, 101 kPa, x1 = 0.4413 | 0.612
298.15 K, 101 kPa, x1 = 0.4536 | 0.618
298.15 K, 101 kPa, x1 = 0.4623 | 0.622
298.15 K, 101 kPa, x1 = 0.469 | 0.626
298.15 K, 101 kPa, x1 = 0.4767 | 0.629
298.15 K, 101 kPa, x1 = 0.4813 | 0.631
298.15 K, 101 kPa, x1 = 0.4869 | 0.634
298.15 K, 101 kPa, x1 = 0.4921 | 0.636
298.15 K, 101 kPa, x1 = 0.4949 | 0.638
298.15 K, 101 kPa, x1 = 0.499 | 0.64
298.15 K, 101 kPa, x1 = 0.5069 | 0.644
298.15 K, 101 kPa, x1 = 0.5154 | 0.648
298.15 K, 101.33 kPa, x1 = 0.1013 | 0.406 ± 0.003
298.15 K, 101.33 kPa, x1 = 0.1036 | 0.4183 ± 0.0041
298.15 K, 101.33 kPa, x1 = 0.2023 | 0.4381 ± 0.0042
298.15 K, 101.33 kPa, x1 = 0.2027 | 0.425 ± 0.003
298.15 K, 101.33 kPa, x1 = 0.2962 | 0.46 ± 0.0044
298.15 K, 101.33 kPa, x1 = 0.304 | 0.448 ± 0.004
298.15 K, 101.33 kPa, x1 = 0.3888 | 0.484 ± 0.0045
298.15 K, 101.33 kPa, x1 = 0.4037 | 0.475 ± 0.004
298.15 K, 101.33 kPa, x1 = 0.4752 | 0.512 ± 0.0048
298.15 K, 101.33 kPa, x1 = 0.4998 | 0.505 ± 0.004
298.15 K, 101.33 kPa, x1 = 0.5556 | 0.5415 ± 0.005
298.15 K, 101.33 kPa, x1 = 0.6018 | 0.546 ± 0.004
298.15 K, 101.33 kPa, x1 = 0.6389 | 0.5789 ± 0.0052
298.15 K, 101.33 kPa, x1 = 0.6985 | 0.594 ± 0.004
298.15 K, 101.33 kPa, x1 = 0.7049 | 0.6136 ± 0.0055
298.15 K, 101.33 kPa, x1 = 0.7751 | 0.6582 ± 0.0058
298.15 K, 101.33 kPa, x1 = 0.8024 | 0.661 ± 0.005
298.15 K, 101.33 kPa, x1 = 0.8468 | 0.7195 ± 0.0063
298.15 K, 101.33 kPa, x1 = 0.9002 | 0.751 ± 0.005
298.15 K, 101.33 kPa, x1 = 0.9096 | 0.7778 ± 0.0067
298.15 K, 101.33 kPa, x1 = 0.9735 | 0.8588 ± 0.0073
298.15 K, 101.33 kPa, x2 = 0.1008 | 0.776 ± 0.02
298.15 K, 101.33 kPa, x2 = 0.2001 | 0.68 ± 0.018
298.15 K, 101.33 kPa, x2 = 0.2493 | 0.641 ± 0.017
298.15 K, 101.33 kPa, x2 = 0.3511 | 0.578 ± 0.016
298.15 K, 101.33 kPa, x2 = 0.4012 | 0.556 ± 0.015
298.15 K, 101.33 kPa, x2 = 0.4993 | 0.52 ± 0.014
298.15 K, 101.33 kPa, x2 = 0.5726 | 0.483 ± 0.014
298.15 K, 101.33 kPa, x2 = 0.6007 | 0.479 ± 0.014
298.15 K, 101.33 kPa, x2 = 0.7471 | 0.447 ± 0.013
298.15 K, 101.33 kPa, x2 = 0.8984 | 0.409 ± 0.012
303.15 K, 101 kPa, x1 = 0.0998 | 0.3894 ± 0.0033
303.15 K, 101 kPa, x1 = 0.2012 | 0.4064 ± 0.0034
303.15 K, 101 kPa, x1 = 0.298 | 0.4275 ± 0.0035
303.15 K, 101 kPa, x1 = 0.3986 | 0.454 ± 0.0036
303.15 K, 101 kPa, x1 = 0.5009 | 0.4857 ± 0.0037
303.15 K, 101 kPa, x1 = 0.5994 | 0.524 ± 0.0039
303.15 K, 101 kPa, x1 = 0.7025 | 0.5716 ± 0.0041
303.15 K, 101 kPa, x1 = 0.7975 | 0.6321 ± 0.0043
303.15 K, 101 kPa, x1 = 0.9009 | 0.7191 ± 0.0047
303.15 K, 101.33 kPa, x1 = 0.1013 | 0.386 ± 0.003
303.15 K, 101.33 kPa, x1 = 0.2027 | 0.402 ± 0.003
303.15 K, 101.33 kPa, x1 = 0.304 | 0.422 ± 0.003
303.15 K, 101.33 kPa, x1 = 0.4037 | 0.447 ± 0.004
303.15 K, 101.33 kPa, x1 = 0.4998 | 0.477 ± 0.004
303.15 K, 101.33 kPa, x1 = 0.6018 | 0.512 ± 0.004
303.15 K, 101.33 kPa, x1 = 0.6985 | 0.556 ± 0.004
303.15 K, 101.33 kPa, x1 = 0.8024 | 0.619 ± 0.004
303.15 K, 101.33 kPa, x1 = 0.9002 | 0.694 ± 0.005
308.15 K, 101.33 kPa, x1 = 0.1013 | 0.365 ± 0.003
308.15 K, 101.33 kPa, x1 = 0.2027 | 0.379 ± 0.003
308.15 K, 101.33 kPa, x1 = 0.304 | 0.399 ± 0.003
308.15 K, 101.33 kPa, x1 = 0.4037 | 0.422 ± 0.003
308.15 K, 101.33 kPa, x1 = 0.4998 | 0.448 ± 0.004
308.15 K, 101.33 kPa, x1 = 0.6018 | 0.481 ± 0.004
308.15 K, 101.33 kPa, x1 = 0.6985 | 0.52 ± 0.004
308.15 K, 101.33 kPa, x1 = 0.8024 | 0.577 ± 0.004
308.15 K, 101.33 kPa, x1 = 0.9002 | 0.643 ± 0.005
